# Assay results from patent US11061016B2, “In vitro model for pathological or physiologic conditions” (HemoShear, LLC, priority 2012, dated 2021).
# Experiments:
# hepatocytes [1] = test: Fatty liver model: measurement of total triglycerides; type: cell-based, rat; conditions: high insulin/glucose media; pioglitazone 1.5 μM; to levels similar to healthy conditions
# Protocol: Triglyceride content was assessed using a commercially available colorimetric assay kit (Cayman Triglyceride Colorimetric Assay Kit, Cat #10010303). At the end of the treatment period, cells were collected from the porous membranes by scraping with a rubber policeman and PBS, after which they were centrifuged (2,000×g for 10 minutes at 4° C.). The cell pellets were resuspended in 100 μl of cold diluted Standard Diluent from the triglyceride assay kit and sonicated 20 times at one second bursts. The cell suspension was then centrifuged at 10,000×g for 10 minutes at 4° C. The supernatant was removed and used for the assay as per the manufacturer's protocol and normalized to protein content from the same samples.
# hepatocytes [2] = test: Fatty liver model: RT-PCR metabolic gene expression; conditions: high insulin/glucose disease conditions; pioglitazone 1.5 μM
structure (smiles),measurement,setting,value
"CCc1ccc(CCOc2ccc(CC3SC(=O)NC3=O)cc2)nc1 (centres unmarked) [Pioglitazone, pioglitazone]",total triglyceride content of hepatocytes,hepatocytes [1],reduced
same,expression of metabolic genes such as Cyp3A2,hepatocytes [2],restored
